Experiment [1] relates to Jurkat cells. Kind of experiment: CXCL12-mediated Jurkat cell transwell migration assay. Type of experiment: cell-based, human. To be noted: 2 h pretreatment, 2 h migration. The protocol:
During inflammation, immune cells are attracted by chemoattractants and migrate to the site of inflammation. Therefore, an inhibitory effect on chemotaxis of immune cells is also a sign of anti-inflammatory effect. We evaluated ABK5-1 and ABK5-2 to determine if these compounds can inhibit CXCL12-mediated Jurkat cell migration. Jurkat cells were incubated with various concentrations of ABK5-1 or 5-2 and loaded on the transwells and allowed to migrate through the transwells to the bottom chamber, which include CXCL12. The cell number in the bottom chamber was determined after 2 h of loading. ABK5-1 inhibited Jurkat cell migration at 10 and 25 μM (Figure 5A). […] Again, to verify these observations were not due to cytotoxicity of test compounds, cell viability was also monitored by incubating cells with compound and CXCL12 without the transwells.
Figure 5 Effect of ABK5-1 and ABK5-2 on CXCL12-mediated Jurkat cell migration. Transwell migration of Jurkat cells treated with (A,B) ABK5-1 or (C,D) ABK5-2. Frames (A,C): Cells were treated with vehicle or various concentrations of test compounds for 2 h and then allowed to migrate through transwells for 2 h. Cell numbers migrated to the lower chamber are indicated as relative to vehicle (DMSO) alone. Results are indicated as the mean ± S.D. of three independent assays performed in triplicate for each concentration. Viability of cells treated with (B) ABK5-1 or (D) ABK5-2 after the migration assay was also examined. Cells were treated exactly the same but without transwells and viability was determined. Results are indicated as the mean ± S.D. of three independent assays performed for each concentration. One-way ANOVA plus Dunnett’s post-hoc test were used for both migration and viability assays. **** p < 0.0001 (versus vehicle control group).
The migration assay was performed as described previously. Briefly, a Transwell Multiple Well Plate with permeable polycarbonate membrane inserts ([…], 24-well, Corning, Corning, NY, USA) were used in migration assays. Jurkat cells were seeded at 2.5 × 10^6 cells/mL in RPMI medium containing 2.5% FBS and treated with DMSO or test compound for 2 h. Then a sample of cells were transferred to the top well. RPMI medium containing 0 to 1000 ng/mL CXCL12 and the appropriate concentration of test compound was loaded to the bottom chamber. Cells were allowed to migrate for 2 h and cells migrated from the top well to the bottom chamber were counted or measured by CCK-8 (Dojindo Molecular Technologies, Inc., Rockville, MD, USA) following the manufacturer instructions. For evaluation of cell viability, the same procedure used for the migration assay was performed without the transwells and the viable cells were counted or measured by CCK-8.

The target in experiment [2] is T1, CB2 (Homo sapiens, UniProt P34972).
T1 construct: expressed in transfected cells; host or cells: HEK293T cells, calcium phosphate transfection, membrane preparation
Nature of the experiment: [35S]GTPγS binding assay (G-protein coupling), CB2 containing HEK293T cell membrane. The format is biochemical. The following applies: stimulation of [35S]GTPγS binding; mean ± S.D. As for the experimental part: We also examined if the compounds can induce G-protein coupling and act as CB2 agonists. Three compounds, ABK5-1, ABK5-2, and ABK5-6, were subjected to [^35S]GTPγS binding assays. Increasing concentrations, from 1 nM to 10 μM of the test compounds, were incubated with CB2 containing HEK293T cell membrane and [^35S]GTPγS, which binds to Gi/o in the membrane upon CB2 activation and G-protein coupling. All three compounds stimulated dose-dependent increases of specific [^35S]GTPγS binding (Figure 3).
In the experiment, 1 × 10^6 HEK293T cells were seeded in a 10-cm cell culture dish and cultured for 24 h. Cells were transfected with CB1 or CB2 using the calcium phosphate method. Approximately one day after transfection, cells were harvested and centrifuged at 4 °C for 5 min at 500× g. The pellet was washed with phosphate buffered saline (PBS) twice and resuspended in PBS containing 1% protease-inhibitor cocktail (Sigma-Aldrich, St. Louis, MO, USA) consisting of 104 mM 4-(2-aminoethyl) benzene sulfonyl fluoride hydrochloride (AEBSF), 80 μM apronitin, 4 mM bestatin, 1.64 mM E-64, 2 mM leupeptin, 1.5 mM pepstatin A. Then the cells were subjected to nitrogen cavitation under 750 psi for 5 min using a Parr cell disruption bomb. The lysate was centrifuged at 500× g for 10 min at 4 °C and the supernatant was spun at 116,000× g for 45 min at 4 °C. The pellet, consisting of the cell membrane expressing CB1 or CB2, was resuspended in TME buffer solution (25 mM Tris-HCl, 5 mM MgCl2, and 1 mM EDTA, pH 7.4) with 7% (w/v) sucrose/TME buffer. The concentration of the membrane protein was determined by the Bradford assay (Bradford, 1976).
GTPγS binding assay buffer ([…], pH 7.4, 3 mM MgCl2, 0.2 mM EGTA, and 100 mM NaCl) membrane protein, 1 nM to 10 μM of the test compounds, 0.1 nM [^35S] GTPγS (1250 Ci/mmol; PerkinElmer Life Sciences, Waltham, MA, USA), 0.1% fatty acid free BSA (w/v), 10 μM guanosine diphosphate (GDP) and GTPγS was incubated for 1 h at 30 °C with shaking. […] A Beckman Coulter 6500 liquid scintillation counter was used to measure the radioactivity of the samples. […]

Experimental findings from PMC8073686, “Characterization of Subtype Selective Cannabinoid CB2 Receptor Agonists as Potential Anti-Inflammatory Agents” (Pharmaceuticals, 2021) are described below.

T1 sequence (P34972 whole entry): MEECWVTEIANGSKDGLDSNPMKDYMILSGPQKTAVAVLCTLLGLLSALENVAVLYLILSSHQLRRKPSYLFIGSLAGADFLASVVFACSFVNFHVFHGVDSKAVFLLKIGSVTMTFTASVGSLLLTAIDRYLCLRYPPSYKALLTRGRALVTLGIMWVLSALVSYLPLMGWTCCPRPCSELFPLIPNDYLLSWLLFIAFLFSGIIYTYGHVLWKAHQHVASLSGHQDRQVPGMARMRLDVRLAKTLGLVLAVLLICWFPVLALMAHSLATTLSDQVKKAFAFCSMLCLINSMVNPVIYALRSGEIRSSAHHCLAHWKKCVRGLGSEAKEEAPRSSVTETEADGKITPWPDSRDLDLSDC

What is called EC50 is the concentration giving half of the maximal effect. Low values mean higher potency in that assay, high ones lower potency in that assay. As to `CCOC(=O)c1ccccc1NC(=O)CN(c1ccc(C)cc1C)S(=O)(=O)c1ccccc1` [ABK5-1], the “decrease of cell migration” value is given as “about 35%” in experiment [1] (10 μM) and approximately 43% in experiment [1] (25 μM). Besides, the EC50 in experiment [2] was determined as 11 ± 14 nM.

As to `CCOC(=O)c1ccccc1NC(=O)CN(c1c(C)cccc1C)S(=O)(=O)c1ccccc1` [ABK5-2], the “decrease of cell migration” value in experiment [1] (10 μM) and in experiment [1] (25 μM) was 32% in each case. The same compound displayed a half-maximal effective concentration (EC50) in experiment [2] of 24 ± 25 nM.
